ChEMBL document CHEMBL1132189, “Three-dimensional quantitative structure-activity relationship analyses using comparative molecular field analysis and comparative molecular similarity indices analysis to elucidate selectivity differences of inhibitors binding to trypsin, thrombin, and factor Xa” (J Med Chem, 1999)

Key:
[1] = target: Coagulation factor X (Homo sapiens, UniProt P00742); assay: Binding affinity towards Coagulation factor Xa
[2] = target: T1, Serine protease 1 (Bos taurus, UniProt P00760); assay: Binding affinity towards trypsin
T1 sequence (P00760 whole entry): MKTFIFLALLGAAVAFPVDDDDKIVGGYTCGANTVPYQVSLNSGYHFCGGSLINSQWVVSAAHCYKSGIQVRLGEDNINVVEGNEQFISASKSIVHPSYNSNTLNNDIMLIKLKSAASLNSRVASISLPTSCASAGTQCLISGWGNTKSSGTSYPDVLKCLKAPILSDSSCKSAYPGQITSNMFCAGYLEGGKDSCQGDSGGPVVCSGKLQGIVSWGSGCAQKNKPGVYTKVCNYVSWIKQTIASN

[3] = target: Prothrombin (Bos taurus, UniProt P00735); assay: Binding affinity towards thrombin

Chain of Coagulation factor X (P00742 41-179 limits assumed): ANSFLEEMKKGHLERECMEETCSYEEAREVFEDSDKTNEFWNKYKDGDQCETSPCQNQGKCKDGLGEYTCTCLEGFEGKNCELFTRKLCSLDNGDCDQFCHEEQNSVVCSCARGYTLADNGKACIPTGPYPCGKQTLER
Chain of Coagulation factor X (P00742 235-488 limits assumed): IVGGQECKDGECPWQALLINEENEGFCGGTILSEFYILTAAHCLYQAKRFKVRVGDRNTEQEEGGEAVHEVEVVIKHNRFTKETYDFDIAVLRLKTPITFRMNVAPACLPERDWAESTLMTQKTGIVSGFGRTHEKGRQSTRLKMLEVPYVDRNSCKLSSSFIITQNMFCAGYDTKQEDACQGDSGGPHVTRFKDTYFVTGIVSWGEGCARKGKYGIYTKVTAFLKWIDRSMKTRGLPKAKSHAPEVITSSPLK

Row | Compound | Ki [1] | Ki [2] | Ki [3]
1 | CC(=O)N1CCN(C(=O)[C@H](Cc2cccc(C(=N)N)c2)NS(=O)(=O)c2ccc3ccccc3c2)CC1 | 48 µM | 0.141 µM | –
2 | N=C(N)c1cccc(C[C@H](NS(=O)(=O)c2ccc3ccccc3c2)C(=O)N2CCC(C(=O)O)CC2)c1 | 43.4 µM | 0.579 µM | 0.57 µM
3 | N=C(N)c1cccc(C[C@H](NS(=O)(=O)c2ccc3ccccc3c2)C(=O)N2CCCC[C@@H]2C(=O)O)c1 | 38 µM | 0.631 µM | 0.26 µM
4 | CC(C)c1cc(C(C)C)c(S(=O)(=O)N[C@@H](Cc2cccc(C(=N)N)c2)C(=O)N2CCC[C@H](C(=O)O)C2)c(C(C)C)c1 | 13 µM | 2.4 µM | –
5 | N=C(N)c1cccc(C[C@H](NS(=O)(=O)c2ccc3ccccc3c2)C(=O)C(=O)O)c1 | 130 µM | 118 µM | 30 µM
6 | N=C(N)c1cccc(C[C@H](NS(=O)(=O)c2ccc3ccccc3c2)C(=O)N2CCC[C@H]2C(=O)O)c1 | 130 µM | 16 µM | –
7 | N=C(N)c1cccc(C[C@H](NS(=O)(=O)c2ccc3ccccc3c2)C(=O)N2CC(C(=O)O)=Cc3ccccc32)c1 | 41 µM | 31 µM | –
8 | Cc1c(C)c(S(=O)(=O)N[C@@H](Cc2cccc(C(=N)N)c2)C(=O)N2CCC(C)CC2)c(C)c2c1OC(C)(C)CC2 | 80 µM | 0.729 µM | 0.034 µM
9 | COc1cc(C)c(S(=O)(=O)N[C@@H](Cc2cccc(C(=N)N)c2)C(=O)N2CCC(C)CC2)c(C)c1C | 100 µM | 0.78 µM | 0.0889 µM
10 | COC(=O)N1CCN(C(=O)[C@H](Cc2cccc(C(=N)N)c2)NS(=O)(=O)c2ccc3ccccc3c2)CC1 | 77.6 µM | 0.02 µM | 0.019 µM
11 | CNC(=O)[C@H](Cc1cccc(C(=N)N)c1)NS(=O)(=O)c1c(C)cc(OC)c(C)c1C | 190 µM | 140 µM | 17 µM
12 | N=C(N)c1cccc(C[C@H](NS(=O)(=O)c2ccc3ccccc3c2)C(=O)N2CCC(C=O)CC2)c1 | 19 µM | 0.22 µM | 0.037 µM
13 | CNC(=O)[C@H]1CCCCN1C(=O)[C@H](Cc1cccc(C(=N)N)c1)NS(=O)(=O)c1ccc2ccccc2c1 | 57 µM | 7.94 µM | 2.3 µM
14 | CNC(=O)[C@H](Cc1cccc(C(=N)N)c1)NS(=O)(=O)c1c(C)c(C)c2c(c1C)CCC(C)(C)O2 | 10 µM | 32 µM | –
15 | N=C(N)c1cccc(C[C@H](NS(=O)(=O)c2ccc3ccccc3c2)C(=O)N2CCCCC2)c1 | 38 µM | – | 0.0646 µM
16 | COC(=O)[C@H]1CCCN(C(=O)[C@H](Cc2cccc(C(=N)N)c2)NS(=O)(=O)c2ccc3ccccc3c2)C1 | 18 µM | 0.389 µM | 0.151 µM
17 | N=C(N)c1cccc(C[C@H](NS(=O)(=O)c2ccc3ccccc3c2)C(=O)N2CCCCCC2)c1 | 26 µM | 0.55 µM | 0.021 µM
18 | CC1CCN(C(=O)[C@H](Cc2cccc(C(=N)N)c2)NS(=O)(=O)c2c(C(C)C)cc(C(C)C)cc2C(C)C)CC1 | 2 µM | 0.69 µM | 0.0741 µM
19 | COC(=O)[C@H]1Cc2ccccc2CN1C(=O)[C@H](Cc1cccc(C(=N)N)c1)NS(=O)(=O)c1ccc2ccccc2c1 | 27 µM | 1.2 µM | 0.2 µM
20 | Cc1ccc(S(=O)(=O)N[C@@H](Cc2cccc(C(=N)N)c2)C(=O)N2CCCCC2)cc1 | 15.1 µM | – | 0.34 µM
21 | CS(=O)(=O)N1CCN(C(=O)[C@H](Cc2cccc(C(=N)N)c2)NS(=O)(=O)c2ccc3ccccc3c2)CC1 | 22 µM | 0.19 µM | –
22 | COC(=O)C1CCN(C(=O)[C@H](Cc2cccc(C(=N)N)c2)NS(=O)(=O)c2c(C(C)C)cc(C(C)C)cc2C(C)C)CC1 | 2.6 µM | 0.27 µM | 0.151 µM

Row | Compound | Ki [1] | Ki [2] | Ki [3]
23 | CC1CCN(C(=O)[C@H](Cc2cccc(C(=N)N)c2)NS(=O)(=O)c2cccc3cccnc23)CC1 | 180 µM | – | 0.34 µM
24 | N=C(N)c1cccc(C[C@H](NS(=O)(=O)c2cccc3ccccc23)C(=O)N2CCCCC2)c1 | 17 µM | 0.61 µM | 0.23 µM
25 | CC1CCN(C(=O)[C@H](Cc2cccc(C(=N)N)c2)NS(=O)(=O)c2ccc(C(C)(C)C)cc2)CC1 | 12 µM | 0.2 µM | 0.005 µM
26 | CS(=O)(=O)N1CCN(C(=O)[C@H](Cc2cccc(C(=N)N)c2)NS(=O)(=O)c2cccc3ccccc23)CC1 | 9.71 µM | – | 0.026 µM
27 | CC(C)OC(=O)[C@H]1CCCN(C(=O)[C@H](Cc2cccc(C(=N)N)c2)NS(=O)(=O)c2ccc3ccccc3c2)C1 | 16 µM | 0.427 µM | 0.511 µM
28 | N=C(N)c1cccc(C[C@H](NS(=O)(=O)c2ccc3ccccc3c2)C(=O)N2CCCc3ccccc32)c1 | 2.3 µM | 1.51 µM | 0.12 µM
29 | N=C(N)c1cccc(C[C@H](NS(=O)(=O)c2ccc3ccccc3c2)C(=O)N2CCC[C@H](C(=O)NCc3ccccc3)C2)c1 | 17 µM | 0.12 µM | 0.28 µM
30 | N=C(N)c1cccc(C[C@H](NS(=O)(=O)c2ccc3ccccc3c2)C(=O)N2CCC(C(=O)NCc3ccccc3)CC2)c1 | 35 µM | 0.27 µM | 3.1 µM
31 | CC(C)(C)c1ccc(S(=O)(=O)N[C@@H](Cc2cccc(C(=N)N)c2)C(=O)N2CCN(S(C)(=O)=O)CC2)cc1 | – | 0.16 µM | 0.00427 µM
32 | N=C(N)c1cccc(C[C@H](NS(=O)(=O)c2ccc3ccccc3c2)C(=O)N2CCc3ccccc3C2)c1 | 18 µM | 0.26 µM | 0.037 µM
33 | Cc1ccc(S(=O)(=O)N[C@@H](Cc2cccc(C(=N)N)c2)C(=O)N2CCCC2)cc1 | 76 µM | 2.2 µM | 0.35 µM
34 | CC1CCN(C(=O)[C@@H](N)Cc2cccc(C(=N)N)c2)CC1 | 230 µM | 29 µM | –
35 | Cc1cc(C)c(S(=O)(=O)N[C@@H](Cc2cccc(C(=N)N)c2)C(=O)N2CCC(C)CC2)c(C)c1 | 95.5 µM | 4 µM | 0.059 µM
36 | CC(C)c1cc(C(C)C)c(S(=O)(=O)N[C@@H](Cc2cccc(C(=N)N)c2)C(=O)N2CCC[C@H](C(=O)OCc3ccccc3)C2)c(C(C)C)c1 | 0.899 µM | 0.851 µM | 0.899 µM
37 | CC1CCN(C(=O)[C@H](Cc2cccc(C(=N)N)c2)NS(=O)(=O)c2ccc3ccccc3c2)CC1 | 41 µM | – | –
38 | CS(=O)(=O)N1CCN(C(=O)[C@@H](N)Cc2cccc(C(=N)N)c2)CC1 | 1000 µM | 29 µM | 13 µM
39 | CNC(=O)[C@H](Cc1cccc(C(=N)N)c1)NS(=O)(=O)c1c(C)cc(C)cc1C | 640 µM | 1000 µM | –
40 | CC(C)NC(=O)[C@H](Cc1cccc(C(=N)N)c1)NS(=O)(=O)c1ccc2ccccc2c1 | 360 µM | 16 µM | 6.19 µM
41 | CC1CCN(C(=O)[C@H](Cc2cccc(C(=N)N)c2)NC(=O)OC(C)(C)C)CC1 | 64.6 µM | 14.1 µM | 1.2 µM
42 | CC1CCN(C(=O)[C@H](Cc2cccc(C(=N)N)c2)NS(=O)(=O)c2ccc3c(c2)C(=O)c2ccccc2C3=O)CC1 | 2.3 µM | 0.074 µM | 0.026 µM
43 | N=C(N)c1cccc(C[C@H](NS(=O)(=O)c2ccc3ccccc3c2)C(=O)N2CCC(N3CCCCC3)CC2)c1 | 22 µM | 1 µM | 15.1 µM
